Measured values published in article PMC5931096, “A Phase I study of the novel immunomodulatory agent PG545 (pixatimod) in subjects with advanced solid tumours” (British Journal of Cancer, 2018).

Test: Phase I dose-escalation: safety, tolerability, DLT and MTD of weekly 1-h IV infusion
Format: in vivo
Experimental: The study was an open-label, multicentre, phase 1 dose-escalation study using a 3 + 3 design. The primary objective was to determine the MTD of weekly administered PG545 via IV infusion. Secondary objectives were to characterize safety, tolerability, clinical activity, PK and PD biomarkers.
Patients continued treatment until disease progression, unacceptable toxicity or withdrawal (either voluntarily or investigator-decision).
All patients were assessed for safety, those who received at least one dose of PG545 were evaluated for efficacy. Safety assessment included the incidence of all adverse events (AEs), irrespective of relationship to study drug, according to the National Cancer Institute Common Terminology Criteria for Adverse Events, version 4.0, and the incidence of patients experiencing dose modifications and/or premature discontinuation of study drug. Dose-limiting toxicities (DLTs) used to determine the MTD were defined as occurring during Cycle 1 of treatment only and related to PG545 according to investigator assessment. If no DLT occurred in the first three subjects, the next three-subject cohort was enrolled at the next highest available dose level. If a single DLT occurred, an additional three subjects was enrolled at the same dose level. Dose escalation continued until two subjects of the cohort experienced a DLT; this was defined as the toxic dose level. The dose-escalation phase was completed and MTD determined by reducing the dose to the next lowest dose compared to the toxic dose and expanding this cohort to at least 6 subjects.

[1] = Moderate, Unrelated, Safety Set

CC(C)CCC[C@@H](C)[C@H]1CC[C@H]2[C@@H]3CC[C@H]4C[C@@H](O[C@@H]5O[C@H](COS(=O)(=O)O)[C@@H](O[C@H]6O[C@H](COS(=O)(=O)O)[C@@H](O[C@H]7O[C@H](COS(=O)(=O)O)[C@@H](O[C@H]8O[C@H](COS(=O)(=O)O)[C@@H](OS(=O)(=O)O)[C@H](OS(=O)(=O)O)[C@H]8OS(=O)(=O)O)[C@H](OS(=O)(=O)O)[C@H]7OS(=O)(=O)O)[C@H](OS(=O)(=O)O)[C@H]6OS(=O)(=O)O)[C@H](OS(=O)(=O)O)[C@H]5OS(=O)(=O)O)CC[C@]4(C)[C@H]3CC[C@]12C [PG545]
TEAE: General disorders and administration site conditions [1]: 5 (21.7%)
TEAE: Groin pain [1]: 1 (4.3%)
TEAE: Headache [1]: 2 (8.7%)
TEAE: Hypoalbuminaemia [1]: 1 (4.3%)
TEAE: Infections and infestations [1]: 1 (4.3%)
TEAE: Insomnia [1]: 1 (4.3%)
TEAE: Intestinal obstruction [1]: 1 (4.3%)
TEAE: Investigations [1]: 3 (13.0%)
TEAE: Malaise [1]: 1 (4.3%)
TEAE: Metabolism and nutritional disorders [1]: 4 (17.4%)
TEAE: Musculoskeletal and connective tissue disorders [1]: 6 (26.1%)
TEAE: Musculoskeletal pain [1]: 1 (4.3%)
TEAE: Nausea [1]: 2 (8.7%)
TEAE: Nervous system disorders [1]: 2 (8.7%)
TEAE: Neutrophil count increased [1]: 1 (4.3%)
TEAE: Pain in extremity [1]: 1 (4.3%)
TEAE: Platelet count increased [1]: 1 (4.3%)
TEAE: Psychiatric disorders [1]: 2 (8.7%)
TEAE: Respiratory, thoracic and mediastinal disorders [1]: 4 (17.4%)
TEAE: Upper respiratory tract infection [1]: 1 (4.3%)
TEAE: White blood cell count increased [1]: 1 (4.3%)
Acute pulmonary oedema, related AE leading to discontinuation (Overall, N = 23): 1 (4) n (%)
Acute pulmonary oedema, related serious AE (Overall, N = 23): 1 (4) n (%)
Acute pulmonary oedema, related severe AE (Overall, N = 23): 1 (4) n (%)
Blood cholesterol increased, related severe AE (Overall, N = 23): 1 (4) n (%)
Blood cholesterol increased, treatment-related AE (Overall, N = 23): 2 (9) n (%)
Blood pressure increased, related severe AE (Overall, N = 23): 1 (4) n (%)
Chills, related AE leading to discontinuation (Overall, N = 23): 1 (4) n (%)
Chills, related severe AE (Overall, N = 23): 2 (9) n (%)
Chills, treatment-related AE (Overall, N = 23): 5 (22) n (%)
Decreased appetite, treatment-related AE (Overall, N = 23): 5 (22) n (%)
Diarrhoea, treatment-related AE (Overall, N = 23): 4 (17) n (%)
Epistaxis, related AE leading to discontinuation (Overall, N = 23): 1 (4) n (%)
Epistaxis, related serious AE (Overall, N = 23): 1 (4) n (%)
Epistaxis, related severe AE (Overall, N = 23): 1 (4) n (%)
Fatigue, related severe AE (Overall, N = 23): 2 (9) n (%)
Fatigue, treatment-related AE (Overall, N = 23): 5 (22) n (%)
Headache, treatment-related AE (Overall, N = 23): 2 (9) n (%)
Hypercholesterolemia, treatment-related AE (Overall, N = 23): 2 (9) n (%)
Hyperlipidaemia, related severe AE (Overall, N = 23): 1 (4) n (%)
Hypertension, related AE leading to discontinuation (Overall, N = 23): 1 (4) n (%)
Hypertension, related serious AE (Overall, N = 23): 1 (4) n (%)
Hypertension, related severe AE (Overall, N = 23): 5 (22) n (%)
Hypertension, treatment-related AE (Overall, N = 23): 6 (26) n (%)
Hypovolaemia, related serious AE (Overall, N = 23): 1 (4) n (%)
Infusion-related reaction, related serious AE (Overall, N = 23): 1 (4) n (%)
Infusion-related reaction, related severe AE (Overall, N = 23): 1 (4) n (%)
Infusion-related reaction, treatment-related AE (Overall, N = 23): 5 (22) n (%)
Injection site reaction, treatment-related AE (Overall, N = 23): 2 (9) n (%)
Nausea, treatment-related AE (Overall, N = 23): 5 (22) n (%)
Pyrexia, related AE leading to discontinuation (Overall, N = 23): 1 (4) n (%)
Pyrexia, related serious AE (Overall, N = 23): 1 (4) n (%)
Pyrexia, related severe AE (Overall, N = 23): 1 (4) n (%)
Pyrexia, treatment-related AE (Overall, N = 23): 5 (22) n (%)
TEAE: Acute pulmonary oedema (Severe, Related, Safety Set): 1 (4.3%)
TEAE: At least one event (Severe, Related, Safety Set): 11 (47.8%)
TEAE: Blood cholesterol increased (Severe, Related, Safety Set): 1 (4.3%)
TEAE: Blood pressure increased (Severe, Related, Safety Set): 1 (4.3%)
TEAE: Chills (Severe, Related, Safety Set): 2 (8.7%)
TEAE: Epistaxis (Severe, Related, Safety Set): 1 (4.3%)
TEAE: Fatigue (Severe, Related, Safety Set): 2 (8.7%)
TEAE: General disorders and administration site conditions (Severe, Related, Safety Set): 4 (17.5%)
TEAE: Hyperlipidaemia (Severe, Related, Safety Set): 1 (4.3%)
TEAE: Hypertension (Severe, Related, Safety Set): 5 (21.7%)
TEAE: Infusion related reaction (Severe, Related, Safety Set): 1 (4.3%)
TEAE: Injury, poisoning and procedural complications (Severe, Related, Safety Set): 1 (4.3%)
TEAE: Investigations (Severe, Related, Safety Set): 2 (8.7%)
TEAE: Metabolism and nutritional disorders (Severe, Related, Safety Set): 1 (4.3%)
TEAE: Pyrexia (Severe, Related, Safety Set): 1 (4.3%)
TEAE: Respiratory, thoracic and mediastinal disorders (Severe, Related, Safety Set): 2 (8.7 %)
TEAE: Vascular disorders (Severe, Related, Safety Set): 5 (21.7%)
TEAE: AST increased (Severe, Unrelated, Safety Set): 1 (4.3%)
TEAE: Anaemia (Severe, Unrelated, Safety Set): 1 (4.3%)
TEAE: At least one event (Severe, Unrelated, Safety Set): 7 (30.4%)
TEAE: Blood ALP increased (Severe, Unrelated, Safety Set): 2 (8.7%)
TEAE: Blood and lymphatic system disorders (Severe, Unrelated, Safety Set): 1 (4.3%)
TEAE: Chest pain (Severe, Unrelated, Safety Set): 1 (4.3%)
TEAE: Constipation (Severe, Unrelated, Safety Set): 1 (4.3%)
TEAE: Dehydration (Severe, Unrelated, Safety Set): 1 (4.3%)
TEAE: Dysuria (Severe, Unrelated, Safety Set): 1 (4.3%)
TEAE: GGT increased (Severe, Unrelated, Safety Set): 1 (4.3%)
TEAE: Gastrointestinal disorders (Severe, Unrelated, Safety Set): 2 (8.7 %)
TEAE: General disorders and administration site conditions (Severe, Unrelated, Safety Set): 1 (4.3%)
TEAE: Hyponatraemia (Severe, Unrelated, Safety Set): 1 (4.3%)
TEAE: Infections and infestations (Severe, Unrelated, Safety Set): 1 (4.3%)
TEAE: Investigations (Severe, Unrelated, Safety Set): 2 (8.7%)
TEAE: Lower respiratory tract infection (Severe, Unrelated, Safety Set): 1 (4.3%)
TEAE: Metabolism and nutritional disorders (Severe, Unrelated, Safety Set): 2 (8.7%)
TEAE: Renal and urinary disorders (Severe, Unrelated, Safety Set): 1 (4.3%)
TEAE: Small intestinal obstruction (Severe, Unrelated, Safety Set): 1 (4.3%)
Serious adverse events (SAEs), number (all cohorts): 12
Treatment-related hypertension, occurrences (all cohorts): six
SAEs resulting in withdrawal or discontinuation (in vivo): Five
SAEs possibly, likely or certainly related to PG545 (investigator assessment): Six
SAEs graded mild (of the 12 SAEs): one
SAEs graded severe (of the 12 SAEs): nine
SAEs graded fatal (of the 12 SAEs, death due to disease progression): two
Duration of hypertensive episodes (transient): < 24 h
Maximum-tolerated dose (MTD) (weekly 1-h IV infusion): 100 mg
Toxic dose (weekly 1-h IV infusion): 150 mg
